Laboratory results reported in patent US20250059164A1, “IRAK DEGRADERS AND USES THEREOF” (Kymera Therapeutics, Inc., priority 2023, published 2025).

biological target: T1, IRAK4 (Homo sapiens, UniProt Q9NWZ3); experiment: IRAK4 MSD degradation in OCI-LY10; assay type: cell-based; details: OCI-LY10 cells, 24 hrs, Meso Scale Discovery
T1 construct: endogenous in cells; host or cells: OCI-LY10
T1 sequence (Q9NWZ3 1-460): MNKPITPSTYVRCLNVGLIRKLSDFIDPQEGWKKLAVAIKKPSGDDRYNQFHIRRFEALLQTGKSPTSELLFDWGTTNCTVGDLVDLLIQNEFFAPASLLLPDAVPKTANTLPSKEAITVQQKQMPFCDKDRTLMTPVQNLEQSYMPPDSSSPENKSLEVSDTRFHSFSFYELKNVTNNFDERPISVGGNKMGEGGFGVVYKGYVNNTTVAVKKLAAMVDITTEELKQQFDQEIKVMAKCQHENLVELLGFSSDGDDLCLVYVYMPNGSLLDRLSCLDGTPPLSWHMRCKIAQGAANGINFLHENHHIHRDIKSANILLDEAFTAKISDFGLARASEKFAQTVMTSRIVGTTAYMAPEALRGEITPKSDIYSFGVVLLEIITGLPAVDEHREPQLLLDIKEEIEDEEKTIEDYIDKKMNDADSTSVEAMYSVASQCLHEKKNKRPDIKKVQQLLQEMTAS
Procedure, shortened: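 OCI-LY10 cells treated 4 to 24 hours at 37° C. with 8-dose 1:3 series, top 1 to 10 μM. IRAK4 in lysates quantified by MSD sandwich immunoassay (mouse capture, rabbit detection, SULFO-TAG anti-rabbit). DC50 from three-parameter logistic fit.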

Compound	DC50 [nM]
O=C1CCC(c2ccc(N3CC(CO[C@@H]4CCN(C[C@H]5CC[C@H](n6cc(NC(=O)c7cnn8ccc(N9C[C@H]%10C[C@@H]9CO%10)nc78)c(C(F)F)n6)CC5)C[C@@H]4F)C3)cc2Cl)C(=O)N1 (stereo partly drawn) [I-38]	< 10
Cn1c(NC(=O)c2cccc(C(F)(F)F)n2)cc2cn([C@H]3CC[C@H](CN4CC[C@@H](c5cccc6c5n(C)c(=O)n6C5CCC(=O)NC5=O)C(F)(F)C4)CC3)nc2c1=O (stereo partly drawn) [I-39]	> 200
CN(C[C@H]1CC[C@H](n2cc(NC(=O)c3cnn4ccc(N5CCCC5)nc34)c(C(F)F)n2)CC1)[C@@H]1CCN(c2cccc3c2n(C)c(=O)n3C2CCC(=O)NC2=O)C[C@H]1F (stereo partly drawn) [I-40]	< 10
Cc1nn(C2CCC(=O)NC2=O)c2cccc(N3CCN(C[C@@H]4COC5(C4)CN(C[C@H]4CC[C@H](n6cc(NC(=O)c7cnn8ccc(N9C[C@H]%10C[C@@H]9CO%10)nc78)c(C(F)F)n6)CC4)C5)CC3)c12 (stereo partly drawn) [I-42]	< 10
Cn1c(NC(=O)c2cccc(C(F)(F)F)n2)cc2cn([C@H]3CC[C@H](CN4CC[C@H](c5cccc6c5n(C)c(=O)n6C5CCC(=O)NC5=O)[C@@H](F)C4)CC3)nc2c1=O (stereo partly drawn) [I-43]	> 200
COc1nc(NC(=O)c2cccc(C(F)F)n2)cc2cn([C@H]3CC[C@H](CN4CC[C@H](c5cccc6c5n(C)c(=O)n6C5CCC(=O)NC5=O)C(F)(F)C4)CC3)nc12 (stereo partly drawn) [I-44]	10 to 100
Cc1nn(C2CCC(=O)NC2=O)c2cccc(N3CC(CN4CCN(C[C@H]5CC[C@H](n6cc(NC(=O)c7cnn8ccc(N9C[C@H]%10C[C@@H]9CO%10)nc78)c(C(F)F)n6)CC5)CC4)C3)c12 (stereo partly drawn) [I-45]	< 10
COc1cc2nn([C@H]3CC[C@H](CN4CCN(c5cccc6c5c(C)nn6C5CCC(=O)NC5=O)CC4)CC3)cc2cc1NC(=O)c1cncc(C#N)c1 (stereo partly drawn) [I-48]	10 to 100
COc1cc2nn([C@H]3CC[C@H](CN4CCC5(CC4)CCN(c4cccc6c4c(C)nn6C4CCC(=O)NC4=O)CC5)CC3)cc2cc1NC(=O)c1cncc(C#N)c1 (stereo partly drawn) [I-49]	10 to 100
COc1cc2nn([C@H]3CC[C@H](CN4CCC5(CC4)CCN(c4cccc6c4c(C)nn6C4CCC(=O)NC4=O)CC5)CC3)cc2cc1NC(=O)c1cncc(C)c1 (stereo partly drawn) [I-50]	10 to 100
C[C@H]1CN(c2ccn3ncc(C(=O)Nc4cn([C@H]5CC[C@H](CN(C)[C@H]6CCN(c7cccc8c7n(C)c(=O)n8C7CCC(=O)NC7=O)C[C@H]6F)CC5)nc4C(F)F)c3n2)CCO1 (stereo partly drawn) [I-51]	< 10
Cc1nn(C2CCC(=O)NC2=O)c2cccc([C@H]3CCN(C[C@H]4CC[C@H](n5cc6cc(NC(=O)c7cccc(C(F)(F)F)n7)ncc6n5)CC4)C[C@@H]3F)c12 (stereo partly drawn) [I-53]	10 to 100
Cc1nn(C2CCC(=O)NC2=O)c2cccc(N3CC(N4CCN([C@H]5CC[C@H](n6cc(NC(=O)c7cnn8ccc(N9C[C@H]%10C[C@@H]9CO%10)nc78)c(C(F)F)n6)CC5)CC4)C3)c12 (stereo partly drawn) [I-54]	< 10
O=C1CCC(c2ccc(N3CC(CO[C@H]4CCN(C[C@H]5CC[C@H](n6cc(NC(=O)c7cnn8ccc(N9C[C@H]%10C[C@@H]9CO%10)nc78)c(C(F)F)n6)CC5)C[C@@H]4F)C3)cc2Cl)C(=O)N1 (stereo partly drawn) [I-55]	10 to 100
Cc1nn(C2CCC(=O)NC2=O)c2cccc(N3CC(CO[C@@H]4CCN(C[C@H]5CC[C@H](n6cc(NC(=O)c7cnn8ccc(N9C[C@H]%10C[C@@H]9CO%10)nc78)c(C(F)F)n6)CC5)C[C@@H]4F)C3)c12 (stereo partly drawn) [I-56]	< 10
Cc1nn(C2CCC(=O)NC2=O)c2cccc(N3CC(N4CCN([C@H]5CC[C@@H](n6cc(NC(=O)c7cnn8ccc(N9C[C@H]%10C[C@@H]9CO%10)nc78)c(C(F)F)n6)CC5)CC4)C3)c12 (stereo partly drawn) [I-57]	> 200
CN(C[C@H]1CC[C@H](n2cc3cc(NC(=O)c4cccc(C(F)(F)F)n4)c(C#N)cc3n2)CC1)[C@@H]1CCN(c2cccc3c2n(C)c(=O)n3C2CCC(=O)NC2=O)C[C@H]1F (stereo partly drawn) [I-58]	< 10
O=C1CCC(Nc2ccc(N3CC(CN4CCN(C[C@H]5CC[C@H](n6cc(NC(=O)c7cnn8ccc(N9C[C@H]%10C[C@@H]9CO%10)nc78)c(C(F)F)n6)CC5)CC4)C3)cc2)C(=O)N1 (stereo partly drawn) [I-61]	10 to 100
CN(c1cccc(N2CCN(C[C@H]3CC[C@H](n4cc5cc(NC(=O)c6cccc(C(F)(F)F)n6)ncc5n4)CC3)CC2)c1)C1CCC(=O)NC1=O (stereo partly drawn) [I-62]	100 to 200
Cn1c(=O)n(C2CCC(=O)NC2=O)c2cccc([C@H]3CCN(C[C@H]4CC[C@H](n5cc6cc(NC(=O)c7cccc(C(F)(F)F)n7)c(C(C)(C)O)cc6n5)CC4)C[C@@H]3F)c21 (stereo partly drawn) [I-63]	< 10
CN(C[C@H]1C[C@@H](n2cc(NC(=O)c3cnn4ccc(N5C[C@H]6C[C@@H]5CO6)nc34)c(C(F)F)n2)C1)[C@@H]1CCN(c2cccc3c2n(C)c(=O)n3C2CCC(=O)NC2=O)C[C@@H]1F (stereo partly drawn) [I-64]	< 10

Compound	DC50 [nM]
CN(C[C@H]1C[C@@H](n2cc(NC(=O)c3cnn4ccc(N5C[C@H]6C[C@@H]5CO6)nc34)c(C(F)F)n2)C1)[C@H]1CCN(c2cccc3c2n(C)c(=O)n3C2CCC(=O)NC2=O)C[C@H]1F (stereo partly drawn) [I-65]	< 10
O=C1CCN(c2cncc3c(N4CC(O)(CN5CCN(C[C@H]6CC[C@H](n7cc(NC(=O)c8cnn9ccc(N%10C[C@H]%11C[C@@H]%10CO%11)nc89)c(C(F)F)n7)CC6)CC5)C4)cccc23)C(=O)N1 [I-67]	< 10
CN(C[C@H]1CC[C@H](n2cc3cc(NC(=O)c4cccc(C(F)(F)F)n4)c(C(C)(C)O)cc3n2)CC1)[C@H]1CCN(c2cccc3c2n(C)c(=O)n3C2CCC(=O)NC2=O)C[C@@H]1F (stereo partly drawn) [I-68]	< 10
CN(C[C@H]1CC[C@H](n2cc3cc(NC(=O)c4cccc(C(F)(F)F)n4)c(C(C)(C)O)cc3n2)CC1)[C@@H]1CCN(c2cccc3c2n(C)c(=O)n3C2CCC(=O)NC2=O)C[C@@H]1F (stereo partly drawn) [I-69]	< 10
CN(C[C@H]1CC[C@H](n2cc3cc(NC(=O)c4cccc(C(F)(F)F)n4)c(C(C)(C)O)cc3n2)CC1)[C@H]1CCN(c2cccc3c2n(C)c(=O)n3C2CCC(=O)NC2=O)C[C@H]1F (stereo partly drawn) [I-70]	< 10
O=C1CCC(c2noc3c(NC(=O)CN4CCN(C[C@H]5CC[C@H](n6cc7cc(NC(=O)c8cccc(C(F)(F)F)n8)ncc7n6)CC5)CC4)cccc23)C(=O)N1 (stereo partly drawn) [I-71]	10 to 100
O=C1CCC(Nc2ccc(N3CC(O)(CN4CCN(C[C@H]5CC[C@H](n6cc(NC(=O)c7cnn8ccc(N9C[C@H]%10C[C@@H]9CO%10)nc78)c(C(F)F)n6)CC5)CC4)C3)cc2)C(=O)N1 (stereo partly drawn) [I-72]	10 to 100
O=C1CCN(c2cncc3c(N4CC(CN5CCN(C[C@H]6CC[C@H](n7cc(NC(=O)c8cnn9ccc(N%10C[C@H]%11C[C@@H]%10CO%11)nc89)c(C(F)F)n7)CC6)CC5)C4)cccc23)C(=O)N1 [I-74]	< 10
CC(C)(O)c1cc2nn([C@H]3CC[C@H](CN4CCN(c5ccc(C6CCC(=O)NC6=O)c(Cl)c5)CC4)CC3)cc2cc1NC(=O)c1cccc(C(F)(F)F)n1 (stereo partly drawn) [I-76]	< 10
CC(C)(O)c1cc2nn([C@H]3CC[C@H](CN4CCN(c5cccc(NC6CCC(=O)NC6=O)c5)CC4)CC3)cc2cc1NC(=O)c1cccc(C(F)(F)F)n1 (stereo partly drawn) [I-77]	10 to 100
COc1cc2nn([C@H]3CC[C@H](CN(C)[C@H]4CCN(c5cccc6c5n(C)c(=O)n6C5CCC(=O)NC5=O)C[C@@H]4F)CC3)cc2cc1NC(=O)c1cccc(C(F)(F)F)n1 (stereo partly drawn) [I-80]	< 10
COc1cc2nn([C@H]3CC[C@H](CN(C)[C@@H]4CCN(c5cccc6c5n(C)c(=O)n6C5CCC(=O)NC5=O)C[C@@H]4F)CC3)cc2cc1NC(=O)c1cccc(C(F)(F)F)n1 (stereo partly drawn) [I-81]	< 10
COc1cc2nn([C@H]3CC[C@H](CN(C)[C@H]4CCN(c5cccc6c5n(C)c(=O)n6C5CCC(=O)NC5=O)C[C@H]4F)CC3)cc2cc1NC(=O)c1cccc(C(F)(F)F)n1 (stereo partly drawn) [I-82]	< 10
N#Cc1cncc(C(=O)Nc2cc3cn([C@H]4CC[C@H](CN5CCN(CC(=O)Nc6cccc7c(C8CCC(=O)NC8=O)noc67)CC5)CC4)nc3cn2)c1 (stereo partly drawn) [I-84]	> 200
Cn1nc(C2CCC(=O)NC2=O)c2cccc(N3CC(O)(CN4CCN(C[C@H]5CC[C@H](n6cc(NC(=O)c7cnn8ccc(N9C[C@H]%10C[C@@H]9CO%10)nc78)c(C(F)F)n6)CC5)CC4)C3)c21 (stereo partly drawn) [I-86]	< 10
Cc1nn([C@@H]2CCC(=O)NC2=O)c2cccc(N3CC(CN4CCN(C[C@H]5CC[C@H](n6cc(NC(=O)c7cnn8ccc(N9C[C@H]%10C[C@@H]9CO%10)nc78)c(C(F)F)n6)CC5)CC4)C3)c12 [I-87]	< 10
Cc1nn([C@H]2CCC(=O)NC2=O)c2cccc(N3CC(CN4CCN(C[C@H]5CC[C@H](n6cc(NC(=O)c7cnn8ccc(N9C[C@H]%10C[C@@H]9CO%10)nc78)c(C(F)F)n6)CC5)CC4)C3)c12 [I-88]	< 10
COc1cc2nn([C@H]3CC[C@H](CN(C)[C@@H]4CCN(c5cccc6c5n(C)c(=O)n6C5CCC(=O)NC5=O)C[C@H]4F)CC3)cc2cc1NC(=O)c1cccc(C(F)(F)F)n1 (stereo partly drawn) [I-90]	< 10
Cn1nc(N2CCC(=O)NC2=O)c2cccc(N3CC(CN4CCN(C[C@H]5CC[C@H](n6cc(NC(=O)c7cnn8ccc(N9C[C@H]%10C[C@@H]9CO%10)nc78)c(C(F)F)n6)CC5)CC4)C3)c21 [I-91]	10 to 100
Cc1nn(C2CCC(=O)NC2=O)c2cc(F)cc(N3CC(CN4CCN(C[C@H]5CC[C@H](n6cc(NC(=O)c7cnn8ccc(N9C[C@H]%10C[C@@H]9CO%10)nc78)c(C(F)F)n6)CC5)CC4)C3)c12 (stereo partly drawn) [I-92]	< 10
Cn1nc(C2CCC(=O)NC2=O)c2cccc(N3CC(CN4CCN(C[C@H]5CC[C@H](n6cc(NC(=O)c7cnn8ccc(N9C[C@H]%10C[C@@H]9CO%10)nc78)c(C(F)F)n6)CC5)CC4)C3)c21 (stereo partly drawn) [I-93]	< 10
